For assay [1], the target named is T1, Heat shock protein HSP 90-beta (Homo sapiens, UniProt P08238). The assay can be described thus: AlphaScreen Assay. An excerpt:
AlphaScreen technology based high-throughput (ALPHA) assay is used to identify inhibitors of Hsp90-TPR2A interaction.
In general terms: Bead proximity is the source of the signal in Alpha formats.

Assay [2] addresses T1, Heat shock protein HSP 90-beta. Nature of the assay: Cell Proliferation Assay. Particulars: 37 °C. An excerpt: Cell assay using BT474, SKBR3 and MCF-12F cell lines measured by WST-1 colorimetric cell proliferation assay.

In BindingDB's records for doi:10.1021/cb800162x (Yale University, 2008) one finds Kd and EC50 data, which are given here for six compounds.

The structures appear in SMILES notation.

As a reminder, the Kd is the equilibrium constant for the complex coming apart. The EC50 is the concentration needed to bring the measured effect to its halfway point. Higher therefore signals weaker potency.

T1 sequence (P08238 whole entry): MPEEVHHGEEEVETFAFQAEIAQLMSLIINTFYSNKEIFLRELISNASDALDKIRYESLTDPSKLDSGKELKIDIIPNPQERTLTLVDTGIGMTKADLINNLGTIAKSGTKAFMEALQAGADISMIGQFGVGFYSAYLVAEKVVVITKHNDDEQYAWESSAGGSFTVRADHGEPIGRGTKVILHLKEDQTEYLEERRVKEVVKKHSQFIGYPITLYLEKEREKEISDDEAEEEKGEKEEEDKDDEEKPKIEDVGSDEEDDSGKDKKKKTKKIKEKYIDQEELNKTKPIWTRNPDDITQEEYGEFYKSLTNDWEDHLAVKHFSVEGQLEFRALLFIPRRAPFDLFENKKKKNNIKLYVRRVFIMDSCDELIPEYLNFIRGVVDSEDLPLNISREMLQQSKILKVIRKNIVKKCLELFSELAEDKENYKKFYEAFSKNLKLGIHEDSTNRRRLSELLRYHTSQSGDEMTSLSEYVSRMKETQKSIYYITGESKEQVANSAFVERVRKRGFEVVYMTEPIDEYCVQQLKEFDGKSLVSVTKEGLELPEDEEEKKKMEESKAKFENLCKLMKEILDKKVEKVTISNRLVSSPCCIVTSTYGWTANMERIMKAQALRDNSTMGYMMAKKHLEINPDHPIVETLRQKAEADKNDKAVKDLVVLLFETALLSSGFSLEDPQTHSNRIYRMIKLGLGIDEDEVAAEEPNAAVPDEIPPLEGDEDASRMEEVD

`CCn1nc(Cc2ccccc2)nc2c(=O)n(C)c(=O)nc1-2` [3-benzyl-1-ethyl-6-methyl-1H,5H,6H,7H-pyrimido[5,4-e][1,2,4]triazine-5,7-dione, 13] registered a Kd in assay [1] of 182 nM. Also, the EC50 in assay [2] amounted to 4270 nM.
With `CCn1nc(-c2ccccc2)nc2c(=O)n(C)c(=O)nc1-2` [1-Ethyl-6-methyl-3-phenyl-1H-pyrimido[5,4-e][1,2,4]triazine-5,7-dione], binding in assay [1] was characterised by a dissociation constant (Kd) of 360 nM. The compound further showed an EC50 in assay [2] of 1720 nM.
Regarding `CCCc1nc2c(=O)n(C)c(=O)nc-2n(C)n1` [1,6-dimethyl-3-propyl-pyrimido[5,4-e][1,2,4]triazine-5,7-dione], the Kd in assay [1] was 414 nM. The compound also came in with an EC50 in assay [2] of 917 nM.
In assay [1], `Cn1nc(-c2ccccc2)nc2c(=O)n(C)c(=O)nc1-2` [1,6-dimethyl-3-phenyl-1H,5H,6H,7H-pyrimido[5,4-e][1,2,4]triazine-5,7-dione, 10] returned a Kd of 585 nM. The compound further showed an EC50 in assay [2] of 690 nM.
`Cc1nc2c(=O)n(C)c(=O)nc-2n(C)n1` [1,3,6-Trimethyl-1H-pyrimido[5,4-e][1,2,4]triazine-5,7-dione] showed a Kd in assay [1] of 492 nM. Also, the EC50 in assay [2] was found to be 946 nM.
For `CCn1nc(-c2cccs2)nc2c(=O)n(C)c(=O)nc1-2` [1-ethyl-6-methyl-3-thiophen-2-yl-pyrimido[5,4-e][1,2,4]triazine-5,7-dione] the same measures were 365 nM and 1210 nM.
